Experiment [1] concerns rabbit heart and vasculature. Briefly: Anesthetized rabbit pressure-volume hemodynamics with or without esmolol or MRS-1754. The format is in vivo. The note with it: for effect of blocker on Compound 1 responses: atrially paced, fixed heart rate; for impact of inhibitor pre-treatment alone on cardiovascular hemodynamics: rabbit, in vivo. From the text:
Cyclic AMP is generated largely by transmembrane adenylyl cyclases activated via stimulatory G protein (Gs), with β-adrenergic, adenosine (primarily A2B), glucagon, prostanoids, histamine, and serotonin all coupling to Gs in cardiomyocytes. The present studies focus on beta-adrenergic and adenosine receptors, and for the latter, concentrated on the A2B receptor, which has been reported to directly stimulate cAMP-dependent contractility. […] Relaxation changes are also modest with LV preload (end-diastolic and volume) unaltered; however, the combined vasodilator-inotropic response doubled ventricular/arterial coupling ratio, Ees/Ea.
New Zealand White rabbits (male, 2-3 kg) are sedated with 35 mg/kg ketamine and 5 mg/kg xylazine, intubated and ventilated (Model 683, Harvard Apparatus, Holliston, Mass.), with anesthesia maintained with isoflurane inhalation (1-2%). A pressure-volume catheter (SPR-894, Millar, Inc., Houston, Tex.) is inserted via the common carotid artery and advanced to the LV apex, and a 2-Fr pacing catheter is positioned in the right atrium via the right jugular vein to provide atrial pacing. […] The parallel conductance is determined by the hypertonic saline injection method. Rabbits are infused with 6% hetastarch in saline during the procedure to stabilize arterial pressure.

Experiment [2] relates to plasma cAMP and cGMP. Briefly: Plasma cAMP and cGMP by ELISA in dogs. The format is in vivo, dog. The procedure: Blood plasma is obtained from these animals, and cAMP and cGMP are assayed by ELISA.
On the technique in general: ELISA stands for enzyme-linked immunosorbent assay.

The subject of experiment [3] is normal and failing canine hearts. The experiment in a line: Conscious dog pressure-volume hemodynamic analysis, normal and failing hearts. The note with it: dobutamine 10 μg/kg/min alone. The format is in vivo. From the text:
Dogs are studied in the conscious state before and after inducing dilated cardiomyopathy by tachypacing for two weeks at 200 bpm. […]
Load insensitive indexes of contractility (dP/dtmax/IP and PRSW) increased.

In experiment [4] the test system is myocyte cAMP. The experiment in a line: Whole cell cAMP in isolated rabbit myocytes. It counts as cell-based. From the text: This is consistent with prior studies showing locally generated cAMP from β-AR and its modulation by PDE3 occur in local subcellular domains that are not easily detected in whole cell lysates32.
Experiment [5] relates to adult rabbit myocytes. The experiment in a line: Contraction and calcium transients in isolated rabbit cardiomyocytes. The format is cell-based. The note with it: for decay kinetics / relaxation times / peak-Ca2+ transient / percent sarcomere shortening: agent alone: Cil 1 μM, Compound 1 1 μM, Iso non-saturating dose. The protocol:
To test whether PDE1 inhibition directly impacts cardiomyocyte contraction and calcium transients, studies are carried out on normal adult rabbit myocytes. […] As PDE1 requires sufficient cAMP and Ca^2+ to be impactful, a dose response was performed to the adenylate cyclase activator, forskolin (FSK) to determine the lowest dose producing a modest but significant inotropic effect (1 μM).
Rabbit myocytes were isolated to determine the effect of PDE1 inhibition on cardiomyocyte contraction and whole cell Ca2+ transients, and to compare the results to those with a PDE3 inhibitor, cilostamide (Cil, 1 μM).
An alternative approach to augmenting cAMP independent of […] is to directly stimulate adenylate cyclase using forskolin (Fsk). A dose response study was carried out to identify a non-saturating Fsk dose that still generated significant inotropic effects (1 μM).

The mark [6] stands for this setting: agent alone: Iso 50 nM, Compound 1 up to 1 mM, IBMX 100 μM.
Where [7] appears, read: agent added to non-saturating Iso.

Structures can show the parent of a compound that is named as a salt.

Regarding `CCCn1c(=O)c2[nH]c(-c3ccc(OCC(=O)Nc4ccc(C#N)cc4)cc3)nc2n(CCC)c1=O` [MRS-1754, reference compound], the “effect of blocker on cardiovascular responses to Compound 1 (heart rate, contractility, vasodilation)” value in experiment [1] (MRS-1754 1 mg/kg iv before Compound 1 0.1 mg/kg) was “eliminated all of the cardiovascular responses to Compound 1”. Also, in experiment [1], the “effect of blocker on Compound 1 responses” value is on record as “fully blocked” and the “impact of inhibitor pre-treatment alone on cardiovascular hemodynamics” value is “Neither inhibitor pre-treatment alone has a significant impact”.
Turning to `CC(CCc1ccc(O)cc1)NCCc1ccc(O)c(O)c1` (centres unmarked) [Dobutamine, dobutamine, reference compound], the “plasma cAMP” value in experiment [2] (HF dogs, single drugs) is “not significantly changed”; in experiment [2] (normal dogs), “augmented plasma cAMP”. Further, in experiment [2] (all conditions, normal and HF models), the “plasma cGMP” value is “remains unchanged”. In addition, the “PV loop area (stroke work)” value in experiment [3] is “increased PV loop area”.
Take `CC(C)NCC(O)c1ccc(O)c(O)c1` (centres unmarked) [isoproterenol]: in experiment [4] (agent alone), the “whole cell cAMP” value is “did not measurably increase whole cell cAMP”. Moreover, in experiment [5], the “decay kinetics / relaxation times” value is given as “quickened relaxation times”, the “peak-Ca2+ transient” value was “increased” and the percent sarcomere shortening entry is “increased”. In experiment [5] (setting [6]), the “contraction/calcium decay time or rates” value is “accelerates the decay time of both”, the “peak Ca2+ transient” value is on record as “increases” and the sarcomere shortening result was “increases”.
On to `CN(C(=O)CCCOc1ccc2[nH]c(=O)ccc2c1)C1CCCCC1` [Cil, cilostamide], for which the “whole cell cAMP” value in experiment [4] (agent added to Fsk) is given as “unaltered”. Also, the “whole cell cAMP” value in experiment [4] (agent alone) was “did not measurably increase whole cell cAMP”. Besides, in experiment [4] (agent combined with Iso), the “whole cell cAMP” value is reported as “did not measurably increase whole cell cAMP”. In addition, in experiment [5] (agent added to Fsk 1 μM), the “Ca2+ transient decay rate” value is listed as “faster decay of the Ca2+ transient”, the “peak Ca2+ transient” value was “increase” and the sarcomere shortening result is on record as “increase in sarcomere shortening”. Also, in experiment [5] (setting [7]), the “peak-Ca2+” value is on record as “remained elevated over baseline” and the sarcomere shortening result is recorded as “further increased sarcomere shortening”. Besides, in experiment [5], the “decay kinetics / relaxation times” value was “accelerated”, the “peak-Ca2+ transient” value is recorded as “rose” and the percent sarcomere shortening result is “rose”.
With `COC(=O)CCc1ccc(OCC(O)CNC(C)C)cc1` (centres unmarked) [esmolol, esmolol HCl, reference compound], in experiment [1], the “effect of blocker on Compound 1 responses” value is reported as “unaltered” and the “impact of inhibitor pre-treatment alone on cardiovascular hemodynamics” value is given as “Neither inhibitor pre-treatment alone has a significant impact”. The “block of cardiac responses to 10 μg/kg/min dobutamine” value in experiment [1] (esmolol 0.5 mg/kg bolus then 0.05 mg/kg/min) is recorded as “effectively blocked”.
As for `CC(C)Cn1c(=O)n(C)c(=O)c2[nH]cnc21` [IBMX], in experiment [5] (setting [6]), the “contraction/calcium decay time or rates” value is “increased”, the “peak Ca2+ transient” value is given as “did not alter peak calcium transients” and the sarcomere shortening result is reported as “increased shortening”.
Regarding `C=C[C@@]1(C)CC(=O)[C@]2(O)[C@@]3(C)[C@@H](O)CCC(C)(C)[C@@H]3[C@H](O)[C@H](OC(C)=O)[C@@]2(C)O1` [forskolin], the “lowest (non-saturating) dose producing a modest but significant inotropic effect” value in experiment [5] (dose response) was found to be 1 µM.
